Data: ChEMBL document CHEMBL3608207, “Synthesis, characterization, evaluation and molecular dynamics studies of 5, 6-diphenyl-1,2,4-triazin-3(2H)-one derivatives bearing 5-substituted 1,3,4-oxadiazole as potential anti-inflammatory and analgesic agents” (Eur J Med Chem, 2015)

Key:
[1] = system: Rattus norvegicus; assay: Renal toxicity in rat Freund's adjuvant induced arthritis model of chronic inflammation assessed as assessed as blood urea nitrogen level at equimolar oral dose relative to 10 mg/kg, po indomethacin dosed after 14 days from day of adjuvant injection until day 21 and measured on day 21 (reference value: 23.48 +/- 1.8 mg/dL); format: organism-based; details: in vivo, 336 h
[2] = system: Rattus norvegicus; assay: Anti-inflammatory activity in rat Freund's adjuvant induced arthritis model of chronic inflammation assessed as inhibition of right hind paw swelling at equimolar oral dose relative to 10 mg/kg, po indomethacin dosed after 14 days from day of adjuvant injection until day 21 and measured on day 6; format: functional
[3] = system: Rattus norvegicus; assay: Anti-inflammatory activity in rat model of acute inflammation assessed as inhibition of carrageenan-induced paw oedema dosed at equimolar oral dose relative to 10 mg/kg, po indomethacin dosed 1 hr before carrageenan injection and measured 3 hrs after carrageenan injection; format: functional
[4] = system: Rattus norvegicus; assay: Gastro-intestinal toxicity in rat Freund's adjuvant induced arthritis model of chronic inflammation assessed as ulcer index at equimolar oral dose relative to 10 mg/kg, po indomethacin dosed after 14 days from day of adjuvant injection until day 21 and measured on day 21; format: organism-based; details: in vivo, 336 h
[5] = system: Rattus norvegicus; assay: Anti-inflammatory activity in rat Freund's adjuvant induced arthritis model of chronic inflammation assessed as inhibition of right hind paw swelling at equimolar oral dose relative to 10 mg/kg, po indomethacin dosed after 14 days from day of adjuvant injection until day 21 and measured on day 15; format: functional
[6] = system: Rattus norvegicus; assay: Anti-inflammatory activity in rat Freund's adjuvant induced arthritis model of chronic inflammation assessed as inhibition of right hind paw swelling at equimolar oral dose relative to 10 mg/kg, po indomethacin dosed after 14 days from day of adjuvant injection until day 21 and measured on day 12; format: functional
[7] = system: Rattus norvegicus; assay: Anti-inflammatory activity in rat model of sub-chronic inflammation assessed as inhibition of cotton pellet-induced granuloma by measuring weight of granulation dosed once daily at equimolar oral dose relative to 10 mg/kg, po indomethacin for seven consecutive days from day of cotton pellet insertion (94.13 +/- 8.1 mg); format: functional
[8] = system: Rattus norvegicus; assay: Anti-inflammatory activity in rat Freund's adjuvant induced arthritis model of chronic inflammation assessed as inhibition of right hind paw swelling at equimolar oral dose relative to 10 mg/kg, po indomethacin dosed after 14 days from day of adjuvant injection until day 21 and measured on day 21; format: functional
[9] = Octanol/water partition coefficient, log P of the compound by shake flask method; format: physicochemical
[10] = system: Rattus norvegicus; assay: Anti-inflammatory activity in rat model of acute inflammation assessed as inhibition of carrageenan-induced paw oedema dosed at equimolar oral dose relative to 10 mg/kg, po indomethacin dosed 1 hr before carrageenan injection and measured 5 hrs after carrageenan injection relative to 10 mg/kg, po indomethacin; format: functional
[11] = system: Rattus norvegicus; assay: Anti-inflammatory activity in rat model of acute inflammation assessed as inhibition of carrageenan-induced paw oedema dosed at equimolar oral dose relative to 10 mg/kg, po indomethacin dosed 1 hr before carrageenan injection and measured 6 hrs after carrageenan injection; format: functional
[12] = In-vitro anti-inflammatory activity assessed as inhibition of denaturation of bovine serum albumin at equimolar dose relative to 10 mg indomethacin; format: functional
[13] = system: Rattus norvegicus; assay: Toxicity in healthy albino rat assessed as induction of diarrhoea up to 500 mg/kg, po; format: organism-based; details: in vivo
[14] = system: Rattus norvegicus; assay: Hepato-toxicity in rat Freund's adjuvant induced arthritis model of chronic inflammation assessed as assessed as SGPT level at equimolar oral dose relative to 10 mg/kg, po indomethacin dosed after 14 days from day of adjuvant injection until day 21 and measured on day 21 (reference value: 34.23 +/- 2.5 U/mL); format: organism-based; details: in vivo, 336 h
[15] = system: Rattus norvegicus; assay: Anti-inflammatory activity in rat Freund's adjuvant induced arthritis model of chronic inflammation assessed as inhibition of right hind paw swelling at equimolar oral dose relative to 10 mg/kg, po indomethacin dosed after 14 days from day of adjuvant injection until day 21 and measured on day 18; format: functional
[16] = system: Mus musculus; assay: Analgesic activity in Swiss albino mouse assessed as reduction in formalin-induced paw licking by measuring time spent on licking during phase-1 at equimolar oral dose relative to 10 mg/kg, po indomethacin dosed 1 hr before formalin challenge and measured 30 mins after formalin injection; format: functional
[17] = system: Rattus norvegicus; assay: Renal toxicity in rat Freund's adjuvant induced arthritis model of chronic inflammation assessed as assessed as total protein level at equimolar oral dose relative to 10 mg/kg, po indomethacin dosed after 14 days from day of adjuvant injection until day 21 and measured on day 21 (reference value: 1.78 +/- 0.11 g/dL); format: organism-based; details: in vivo, 336 h
[18] = system: Rattus norvegicus; assay: Toxicity in healthy albino rat assessed as induction of lethargy up to 500 mg/kg, po; format: organism-based; details: in vivo
[19] = system: Mus musculus; assay: Analgesic activity in Swiss albino mouse assessed as reduction in number of writhing episodes at equimolar oral dose relative to 10 mg/kg, po indomethacin measured 30 mins following acetic acid injection; format: functional
[20] = system: Rattus norvegicus; assay: Toxicity in healthy albino rat assessed as induction of sleep up to 500 mg/kg, po; format: organism-based; details: in vivo
[21] = system: Rattus norvegicus; assay: Hepato-toxicity in rat Freund's adjuvant induced arthritis model of chronic inflammation assessed as assessed as SGOT level at equimolar oral dose relative to 10 mg/kg, po indomethacin dosed after 14 days from day of adjuvant injection until day 21 and measured on day 21 (reference value: 92.48 +/- 7.8 U/mL); format: organism-based; details: in vivo, 336 h
[22] = system: Mus musculus; assay: Analgesic activity in Swiss albino mouse assessed as reduction in formalin-induced paw licking by measuring time spent on licking during phase-2 at equimolar oral dose relative to 10 mg/kg, po indomethacin dosed 1 hr before formalin challenge and measured 30 mins after formalin injection; format: functional
[23] = system: Rattus norvegicus; assay: Anti-inflammatory activity in rat model of acute inflammation assessed as inhibition of carrageenan-induced paw oedema dosed at equimolar oral dose relative to 10 mg/kg, po indomethacin dosed 1 hr before carrageenan injection and measured 2 hrs after carrageenan injection; format: functional
[24] = system: Rattus norvegicus; assay: Anti-inflammatory activity in rat assessed as inhibition of arachidonic acid-induced paw edema dosed at equimolar oral dose relative to 10 mg/kg, po indomethacin dosed 30 mins before arachidonic acid injection and measured 1 hr after arachidonic acid injection; format: functional
[25] = system: Rattus norvegicus; assay: Toxicity in healthy albino rat assessed as induction of convulsion up to 500 mg/kg, po; format: organism-based; details: in vivo
[26] = system: Rattus norvegicus; assay: Hepato-toxicity in rat Freund's adjuvant induced arthritis model of chronic inflammation assessed as assessed as alkaline phosphatase level at equimolar oral dose relative to 10 mg/kg, po indomethacin dosed after 14 days from day of adjuvant injection until day 21 and measured on day 21 (reference value: 17.82 +/- 1.2 U); format: organism-based; details: in vivo, 336 h
[27] = system: Rattus norvegicus; assay: Anti-inflammatory activity in rat model of acute inflammation assessed as inhibition of carrageenan-induced paw oedema dosed at equimolar oral dose relative to 10 mg/kg, po indomethacin dosed 1 hr before carrageenan injection and measured 1 hr after carrageenan injection; format: functional
[28] = system: Rattus norvegicus; assay: Toxicity in healthy albino rat assessed as induction of tremors up to 500 mg/kg, po; format: organism-based; details: in vivo
[29] = system: Rattus norvegicus; assay: Renal toxicity in rat Freund's adjuvant induced arthritis model of chronic inflammation assessed as assessed as total albumin level at equimolar oral dose relative to 10 mg/kg, po indomethacin dosed after 14 days from day of adjuvant injection until day 21 and measured on day 21 (reference value: 1.77 +/- 0.12 g/dL); format: organism-based; details: in vivo, 336 h
[30] = system: Rattus norvegicus; assay: Toxicity in healthy albino rat assessed as induction of coma up to 500 mg/kg, po; format: organism-based; details: in vivo

COc1ccc(-c2nnc(Cn3nc(-c4ccccc4)c(-c4ccccc4)nc3=O)o2)cc1
Activity [1]: 40.62 mg/dL | inhibition (INH) [2]: 35.14% | inhibition (INH) [3]: 48.11% | UI [4]: 11 | inhibition (INH) [5]: 43.46% | inhibition (INH) [6]: 41.05% | Activity [7]: 58.51 mg | inhibition (INH) [8]: 49.34% | logP [9]: 3.56 | inhibition (INH) [10]: 88.2% | inhibition (INH) [11]: 52.71% | inhibition [12]: 76.7% | Activity [13]: Non-toxic | Activity [14]: 41.31 U/ml | inhibition (INH) [15]: 45.78% | inhibition (INH) [16]: 10.59% | Activity [17]: 1.81 g/dL | Activity [18]: Non-toxic | inhibition (INH) [19]: 70.21% | Activity [20]: Non-toxic | Activity [21]: 103.17 U/ml | inhibition (INH) [22]: 74.38% | inhibition (INH) [23]: 38.71% | inhibition (INH) [24]: 13.71% | Activity [25]: Non-toxic | Activity [26]: 22.11 U | inhibition (INH) [27]: 18.24% | Activity [28]: Non-toxic | Activity [29]: 1.87 g/dL | Activity [30]: Non-toxic
